This assay has as its target T1, human RXFP1 (Homo sapiens, UniProt Q9HBX9).
T1 construct: expressed in transfected cells
T1 sequence (Q9HBX9 1-757): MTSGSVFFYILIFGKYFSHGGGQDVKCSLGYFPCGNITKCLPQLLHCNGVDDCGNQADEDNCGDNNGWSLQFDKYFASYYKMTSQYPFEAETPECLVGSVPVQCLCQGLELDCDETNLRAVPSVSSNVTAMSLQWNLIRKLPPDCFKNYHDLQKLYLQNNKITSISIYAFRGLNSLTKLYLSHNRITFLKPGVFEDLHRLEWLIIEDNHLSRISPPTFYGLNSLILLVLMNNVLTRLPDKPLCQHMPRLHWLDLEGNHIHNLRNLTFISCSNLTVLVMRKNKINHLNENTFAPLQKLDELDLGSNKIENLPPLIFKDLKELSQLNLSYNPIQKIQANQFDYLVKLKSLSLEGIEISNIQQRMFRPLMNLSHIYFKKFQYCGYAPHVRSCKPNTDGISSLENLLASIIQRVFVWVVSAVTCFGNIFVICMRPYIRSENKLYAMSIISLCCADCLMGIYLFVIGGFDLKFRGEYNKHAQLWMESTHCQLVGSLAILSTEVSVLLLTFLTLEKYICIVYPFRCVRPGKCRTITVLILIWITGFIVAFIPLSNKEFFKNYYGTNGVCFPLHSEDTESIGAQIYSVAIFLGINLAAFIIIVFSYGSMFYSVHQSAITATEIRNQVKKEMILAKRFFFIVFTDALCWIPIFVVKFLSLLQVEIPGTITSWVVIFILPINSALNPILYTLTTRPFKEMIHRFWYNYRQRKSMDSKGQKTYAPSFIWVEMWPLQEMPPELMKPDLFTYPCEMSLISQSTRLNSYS
Put plainly: human RXFP1 (hRXFP1) HEK293 cAMP assay (HTRF). Type of assay: cell-based. Particulars: HEK293 cells stably expressing human RXFP1, 30 min at room temperature. In a few lines: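 HEK293 cells stably expressing human RXFP1 (1500 cells/well) in HBSS/20 mM HEPES/0.05% BSA/0.5 mM IBMX, treated with compound (0.010 nM–50 µM final, 2% DMSO) for 30 min at room temperature. Intracellular cAMP read by HTRF; potency from 4-parameter logistic fit of cAMP versus concentration.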
Broadly, the EC50 is the concentration that produces a half-maximal response. Lower therefore signals an effect from little substance. Compound `COc1ncc(C2=NOC3CC(C(C)O)CC23)cc1C(=O)N[C@H]1[C@@H](C(=O)Nc2ccc(F)c(C(F)(F)F)c2)[C@H]2CC[C@@H]1/C2=C\C1CCCC1` (stereo partly drawn) [Example 128, N-((1R,2R,3S,4R,Z)-7-(cyclopentylmethylene)-3-((4-fluoro-3-(trifluoromethyl)phenyl)carbamoyl)bicyclo[2.2.1]heptan-2-yl)-5-(5-(1-hydroxyethyl)-3a,5,6,6a-tetrahydro-4H-cyclopenta[d]isoxazol-3-yl)-2-methoxynicotinamide] registered an EC50 of 4.9 nM. As for `COc1ncc(C2=NOC3CC(CO)CC23)cc1C(=O)N[C@@H]1C2CCC(/C2=C/C2CC2)[C@@H]1C(=O)N[C@H](C)C1(C(F)(F)F)CC1` (stereo partly drawn) [Example 141], the response was half-maximal at 3.4 nM (EC50). `COc1ccc(-c2cc([C@H](OC(=O)Nc3ccccc3)C(F)(F)F)ccc2F)nc1C(=O)N[C@@H]1C2CCC(/C2=C/C(F)(F)F)[C@@H]1C(=O)Nc1ccc(F)c(C(F)(F)F)c1` (stereo partly drawn) [Example 39, (1S)-2,2,2-trifluoro-1-14-fluoro-3-(6-{[(2R,3S,72)-3-{[4-fluoro-3-(trifluoromethyl)phenyl]carbamoyl}-7-(2,2,2-trifluoro-ethylidene)bicyclo[2. 2.1]heptan-2-yl]carbamoyl}-5-methoxypyridin-2-yl)phenyl]ethyl N-phenylcarbamate] yielded an EC50 of 110 nM. Against the preceding compound, the EC50 is about 32-fold higher. `COc1cnc(C2=NOC3COCC23)cc1C(=O)N[C@H]1[C@@H](C(=O)Nc2ccc(F)c(C(F)(F)F)c2)[C@H]2CC[C@@H]1/C2=C\C1CC1` (single isomer, unassigned) [Example 72] registered an EC50 of 160 nM. Turning to `COc1ncc(C2=NOC3CC(CO)CC23)cc1C(=O)N[C@H]1[C@@H](C(=O)Nc2ccc(F)c(C(F)(F)F)c2)[C@H]2CC[C@@H]1/C2=C\c1cscn1` (stereo partly drawn) [Example 97, N-((1R,2R,3S,4R,Z)-3-((4-fluoro-3-(trifluoromethyl)phenyl)carbamoyl)-7-(thiazol-4-ylmethylene)bicyclo [2.2.1]heptan-2-yl)-5-(5-(hydroxymethyl)-3a,5,6,6a-tetrahydro-4H-cyclopenta[d]isoxazol-3-yl)-2-methoxy-nicotinamide], the midpoint of the response, the EC50, lay at 3.1 nM. Against the preceding compound, the EC50 is about 52-fold lower.

The compound `CCCc1cnc(OC)c(C(=O)N[C@@H]2C3CCC(/C3=C/C(F)(F)F)[C@@H]2C(=O)Nc2ccc(F)c(C(F)(F)F)c2)n1` (stereo partly drawn) [Example 52, N-[(2R,3S,7Z)-3-{[4-fluoro-3-(trifluoromethyl)phenyl]carbamoyl}-7-(2,2,2-trifluoroethylidene)bicyclo[2.2.1]heptan-2-yl]-3-methoxy-6-propylpyrazine-2-carboxamide] came in with a concentration for a half-maximal effect (EC50) of 1300 nM. As for `COc1ncc(-c2cc([C@H](OC(=O)NC3CCC3)C(F)(F)F)ccc2F)cc1C(=O)N[C@H]1[C@@H](C(=O)NC(C)C2(C)CC2)[C@H]2CC[C@@H]1/C2=C\C1CC(F)(F)C1` (stereo partly drawn) [Example 148, (S)-1-(3-(5-(((1R,2R,3S,4R, Z)-7-((3,3-difluorocyclobutyl)methylene)-3-(((R)-1-(1-methylcyclopropyl)ethyl)carbamoyl)bicyclo[2.2.1]heptan-2-yl)carbamoyl)-6-methoxypyridin-3-yl)-4-fluorophenyl)-2,2,2-trifluoroethyl cyclobutylcar-bamate], the figure is 0.5 nM; as for `COc1ncc(C#CCO)cc1C(=O)N[C@@H]1C2CCC(/C2=C/C(F)(F)F)[C@@H]1C(=O)Nc1ccc(F)c(C(F)(F)F)c1` (stereo partly drawn) [Example 49, N-[(2R,3S,7Z)-3-{[4-fluoro-3-(trifluoromethyl)phenyl]carbamoyl}-7-(2,2,2-trifluoroethylidene)bicyclo[2.2.1]heptan-2-yl]-5-(3-hydroxyprop-1-yn-1-yl)-2-methoxypyridine-3-carboxamide], 153 nM; as for `COc1ncc(C2=NOC3CC(CO)CC23)cc1C(=O)N[C@H]1[C@@H](C(=O)N[C@H](C)C2(C)CC(F)(F)C2)[C@H]2CC[C@@H]1/C2=C\C1CC1` (stereo partly drawn) [Example 140, N-((1R,2R,3S,4R,Z)-7-(cyclopropyl-methylene)-3-(((R)-1-(3,3-difluoro-1-methylcyclobutyl)ethyl)carbamoyl)bicyclo[2.2.1]heptan-2-yl)-5-(5-(hydroxymethyl)-3a,5,6,6a-tetrahydro-4H-cyclopenta[d]isoxazol-3-yl)-2-methoxynicotinamide], 3.2 nM. With `COc1ncc(C2=NOC3CC(C(O)C4CC4)CC23)cc1C(=O)N[C@H]1[C@@H](C(=O)Nc2ccc(F)c(C(F)(F)F)c2)[C@H]2CC[C@@H]1/C2=C\C1CC1` (stereo partly drawn) [Example 111, 5-(5-(cyclopropyl (hydroxy)methyl)-3a,5,6,6a-tetrahydro-4H-cyclopenta[d]isoxazol-3-yl)-N-((1R,2R,3S,4R,Z)-7-(cyclopropyl-methylene)-3-((4-fluoro-3-(trifluoromethyl)phenyl)carbamoyl)bicyclo[2.2.1]heptan-2-yl)-2-methoxynicotinamide], the midpoint of the response, the EC50, lay at 3.6 nM. This EC50 and that of the compound before are within 1.5-fold of each other. In the case of `COc1nn(-c2cccc(C(=O)O)c2)cc1C(=O)N[C@@H]1C2CCC(/C2=C/c2ccccc2)[C@@H]1C(=O)Nc1ccc(F)c(C(F)(F)F)c1` (stereo partly drawn) [Example 54, 3-(4-{[(2R,3S,7Z)-3-{[4-fluoro-3-(trifluoromethyl)phenyl]carbamoyl}-7-(phenylmethylidene)bicyclo [2.2.1]heptan-2-yl]carbamoyl}-3-methoxy-1H-pyrazol-1-yl)benzoic acid], the EC50 worked out at 1200 nM. This EC50 lies about 330-fold higher than the previous one. As for `CC1Cc2cc(C3=NOC4CC(CO)CC34)cc(C(=O)N[C@H]3[C@@H](C(=O)N[C@H](C)C4(C)CC4)[C@H]4CC[C@@H]3/C4=C\C3CC3)c2O1` (stereo partly drawn) [Example 153, N-[(1R,2R,3S,4R, 7Z)-7-(cyclopropyl-methylidene)-3-{[(1R)-1-(1-methylcyclopropyl)ethyl]carbamoyl}bicyclo[2.2.1]heptan-2-yl]-5-[5-(hydroxymethyl) 3aH,4H,5H,6H, 6aH-cyclopenta[d][1,2]oxazol-3-yl]-2-methyl-2,3-dihydro-1-benzofuran-7-carboxamide], the figure is 4.6 nM; as for `O=C(O)c1ccc(F)c(C23COC(C(=O)N[C@H]4[C@@H](C(=O)Nc5ccc(F)c(C(F)(F)F)c5)[C@H]5CC[C@@H]4/C5=C\C(F)(F)F)(C2)C3)c1` [Example 81, 4-fluoro-3-(1-(((1R,2R,3S,4R,Z)-3-((4-fluoro-3-(trifluoromethyl)phenyl)carbamoyl)-7-(2,2,2-trifluoroethylidene)bicyclo[2.2.1]heptan-2-yl)carbamoyl)-2-oxabicyclo[2.1.1]hexan-4-yl)benzoic acid], 2300 nM; as for `COc1cnc(C2=NOC3COCC23)cc1C(=O)N[C@H]1[C@@H](C(=O)Nc2ccc(F)c(C(F)(F)F)c2)[C@H]2CC[C@@H]1/C2=C\C1CC1` (single isomer, unassigned) [Example 71], 28 nM. Regarding `COc1ncc(-c2cc([C@H](O)C(F)(F)F)ccc2F)cc1C(=O)N[C@H]1[C@@H](C(=O)Nc2ccc(F)c(C(F)(F)F)c2)[C@H]2CC[C@@H]1/C2=C\C1CCCC1` [Example 163, N-[(1R,2R,3S,4R, 7Z)-7-(cyclopentyl-methylidene)-3-{[4-fluoro-3-(trifluoromethyl)phenyl]carbamoyl}bicyclo[2.2.1]heptan-2-yl]-5-{2-fluoro-5-[(1S)-2,2,2-trifluoro-1-hydroxyethyl]phenyl}-2-methoxypyridine-3-carboxamide], the EC50 was 1 nM.

For `COc1ncc(C2=NOC3CN(CC(O)C(F)(F)F)CC23)cc1C(=O)N[C@H]1[C@@H](C(=O)Nc2ccc(F)c(C(F)(F)F)c2)[C@H]2CC[C@@H]1/C2=C\C1CC1` (stereo partly drawn) [Example 180, N-[(1R,2R,3S,4R, 7Z)-7-(cyclopropyl-methylidene)-3-{[4-fluoro-3-(trifluoromethyl)phenyl]carbamoyl}bicyclo[2.2.1]heptan-2-yl]-2-methoxy-5-[5-(3,3,3-trifluoro-2-hydroxypropyl)-3aH,4H,5H,6H, 6aH-pyrrolo[3,4-d][1,2]oxazol-3-yl]pyridine-3-carboxamide], the response was half-maximal at 4.3 nM (EC50). Against the preceding compound, the EC50 is about 4.3-fold higher. Compound `CC(C)=C1C2CCC1[C@H](C(=O)Nc1ccc(F)c(C(F)(F)F)c1)[C@@H]2NC(=O)c1cc(C#N)ccn1` (stereo partly drawn) [Example 3, 4-cyano-N-[(2R,3S)-3-{[4-fluoro-3-(trifluoromethyl)phenyl]carbamoyl}-7-(propan-2-ylidene)bicyclo [2.2.1]heptan-2-yl]pyridine-2-carboxamide] came in with a concentration for a half-maximal effect (EC50) of 440 nM.

The compound `CC(C)(C)CNC(=O)[C@@H]1[C@H](NC(=O)c2cc(C3=NOC4CC(CO)CC34)cc3c2OC(C)(C)C3)[C@@H]2CC[C@H]1/C2=C/C1CC1` (stereo partly drawn) [Example 146, N-[(1R,2R,3S, 4R,7Z)-7-(cyclopropyl-methylidene)-3-[(2,2-dimethylpropyl)carbamoyl]bicyclo [2.2.1]heptan-2-yl]-5-[5-(hydroxymethyl)-3aH,4H,5H,6H,6aH-cyclopenta[d][1,2]oxazol-3-yl]-2,2-dimethyl-2,3-dihydro-1-benzofuran-7-carboxamide] came in with an EC50 of 3.5 nM.

(Values after patent publication US20250011288A1 (BRISTOL-MYERS SQUIBB COMPANY, priority 2021, published 2025).)
